# Experimental data taken from US20230416225A1, “DIAMINOPYRIMIDINE CARBOXAMIDE INHIBITORS OF HPK1” (MERCK SHARP & DOHME LLC, priority 2020, published 2023).
# Target: T1, Human HPK1, catalytic domain (Homo sapiens, UniProt Q92918)
# T1 construct: purchased Carna
# T1 sequence (Q92918 1-346): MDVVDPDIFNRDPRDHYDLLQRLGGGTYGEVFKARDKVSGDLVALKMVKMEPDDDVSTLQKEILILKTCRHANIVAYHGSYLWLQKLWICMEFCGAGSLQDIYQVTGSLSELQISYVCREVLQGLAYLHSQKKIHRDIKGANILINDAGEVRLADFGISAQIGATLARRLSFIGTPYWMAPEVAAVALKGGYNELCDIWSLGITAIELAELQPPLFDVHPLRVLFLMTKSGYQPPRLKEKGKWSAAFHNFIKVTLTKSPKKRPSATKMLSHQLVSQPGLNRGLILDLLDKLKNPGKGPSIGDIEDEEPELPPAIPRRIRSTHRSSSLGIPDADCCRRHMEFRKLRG
# Experiment: HPK1-SLP76 TR-FRET assay
# Type: biochemical
# Settings: 75 pM HPK1, 10 uM ATP, 10 nM SLP76, 30 min compound pre-incubation
row,Structure (SMILES),IC50 [nM]
1,"CN1CCc2cc(F)c(Nc3ncc(C(N)=O)c(Nc4ccccc4CO)n3)cc2C1 [Example 7-42, 2-[(6-fluoro-2-methyl-1,2,3,4-tetrahydroisoquinolin-7-yl)amino]-4-{[2-(hydroxymethyl)phenyl]amino}py-rimidine-5-carboxamide]",0.12
2,"Cc1ccc(Nc2ncc(C(N)=O)c(Nc3cccc4c3CCNC4=O)n2)c(F)c1F [Example 25-39, 2-[(2,3-difluoro-4-methylphenyl)amino]-4-[(1-oxo-1,2,3,4-tetrahydroisoquinolin-5-yl)amino]pyrimidine-5-carboxamide]",19.4
3,"NC(=O)c1cnc(Nc2cccc(C(F)(F)F)c2F)nc1Nc1cccc2c1CCNC2=O [Example 25-42, 2-{[2-fluoro-3-(trifluoromethyl)phenyl]amino}-4-[(1-oxo-1,2,3,4-tetrahydroisoquinolin-5-yl)amino]pyrimidine-5-carboxamide]",89.9
4,"COc1cc2c(cc1Nc1ncc(C(N)=O)c(N[C@H]3CC[C@H](C)CC3)n1)CN(C)CC2 [Example 26-29, 2-[(6-methoxy-2-methyl-1,2,3,4-tetrahydroisoquinolin-7-yl)amino]-4-[(trans-4-methylcyclohexyl)amino]pyrimidine-5-carboxamide]",1.43
5,"COCCN1CCc2cc(OC)c(Nc3ncc(C(N)=O)c(Nc4ccccc4Br)n3)cc2C1 [Example 10-1, 4-[(2-bromophenyl)amino]-2-{[6-methoxy-2-(2-methoxyethyl)-1,2,3,4-tetrahydroisoquinolin-7-yl]amino}pyrimidine-5-carboxamide]",0.44
6,"COc1cc2c(cc1Nc1ncc(C(N)=O)c(Nc3ccccc3CC3(C#N)CC3)n1)CN(C)CC2 [Example 13-8, 4-({2-[(1-cyanocyclopropyl)methyl]phenyl}amino)-2-[(6-methoxy-2-methyl-1,2,3,4-tetrahydroisoquinolin-7-yl)amino]pyrimidine-5-carboxamide]",230
7,"COc1cc2c(cc1Nc1ncc(C(N)=O)c(Nc3c(F)cccc3C(C)OC)n1)CN(C)CC2 (racemic) [Example 23-1, (RAC)-4-((2-fluoro-6-(1-methoxyethyl)phenyl)amino)-2-((6-methoxy-2-methyl-1,2,3,4-tetrahydroisoquinolin-7-yl)amino)pyrimidine-5-carboxamide]",0.22
8,"COc1cc2c(cc1Nc1ncc(C(N)=O)c(Nc3ccccc3C3CCOCC3)n1)CN(C)CC2 [Example 13-13, 2-[(6-methoxy-2-methyl-1,2,3,4-tetrahydroisoquinolin-7-yl)amino]-4-{[2-(oxan-4-yl)phenyl]amino}pyrimidine-5-carboxamide]",1.09
9,"COc1cc2c(cc1Nc1ncc(C(N)=O)c(NC3CCc4ccc(C)cc43)n1)CN(C)CC2 (stereo not drawn) [Example 26-71, 2-[(6-methoxy-2-methyl-1,2,3,4-tetrahydroisoquinolin-7-yl)amino]-4-[(6-methyl-2,3-dihydro-1H-inden-1-yl)amino]pyrimidine-5-carboxamide]",32.8
10,"Cc1cccc(F)c1Nc1nc(Nc2cnn(C)c2)ncc1C(N)=O [Example 4-35, 4-[(2-fluoro-6-methylphenyl)amino]-2-[(1-methyl-1H-pyrazol-4-yl)amino]pyrimidine-5-carboxamide]",158
11,"COc1cc2c(cc1Nc1ncc(C(N)=O)c(Nc3ccccc3Br)n1)CN(C1CC(CO)C1)CC2 (single isomer, unassigned) [Example 9-3, 4-((2-bromophenyl)amino)-2-((2-(3-(hydroxymethyl)cyclobutyl)-6-methoxy-1,2,3,4-tetrahydroisoquinolin-7-yl)amino)pyrimidine-5-carboxamide]",0.33
12,"COc1cc2c(cc1Nc1ncc(C(N)=O)c(N[C@@H](C)C3CCCCC3)n1)CN(C)CC2 [Example 26-7, 4-{[(1S)-1-cyclohexylethyl]amino}-2-[(6-methoxy-2-methyl-1,2,3,4-tetrahydroisoquinolin-7-yl)amino]pyrimidine-5-carboxamide]",12
